Experimental data reported in patent US20190022041A1, “OIL PALM PHENOLICS COMPOSITION FOR THE PROTECTION OF HUMANS, ORGANS, CELLS AND TISSUES AGAINST THE INJURIOUS EFFECTS OF EXPOSURE TO IONIZING RADIATION” (Malaysian Palm Oil Board, priority 2015, published 2019).

Test system: HT-29 cells
Assay: number of colonies of HT-29 cells after gamma ionizing radiation
Type: cell-based
Conditions: FIG. 3
Excerpt: For instance, lipid peroxidation levels of HT-29 by TBAR assay is protected by OPP against 800 and 1600 rads HT-29, as illustrated in graph of FIG. 2. […] Out of the three preparations, number of colonies of HT-29 is highest in case of de-phenolics.

For `O=C(O)C1=C[C@@H](O)[C@@H](O)[C@H](O)C1` [shikimic acid], the number of colonies was “abruptly increases”.
